Assay results as given in EP0533724B1, “CALCIUM CITRATE MALATE COMPOSITION” (THE PROCTER & GAMBLE COMPANY, priority 1990, dated 1991).

Test: physchem
Details: water
Text: The exact method for determining this is described hereinafter.

With `O=C(O)CC(O)C(=O)O` (stereo not shown) [calcium malate] the solubility at 0.5 h was 660 mg/mL.
